According to patent US20170348269A1, “TREATMENT OF UREA CYCLE DISORDERS IN NEONATES AND INFANTS” (Horizon Therapeutics, LLC, priority 2016, published 2017):

Experiments:
Assay type in all cases: in vivo, human
[1] = test system: blood ammonia in pediatric patients with UCDs; test: HPN-100-012 open-label fixed sequence switch-over study, blood ammonia control
Source text: HPN-100-012, an open-label, fixed sequence, switch-over study of the safety, PK and efficacy of HPN-100 compared to NaPBA in patients with UCDs, with a 12-month safety extension part. […] After review of all the safety data by the DSMB, 8 additional subjects were enrolled in the study after the switch-over phase was completed. The primary efficacy endpoint was the 24-hour AUC (area under the curve) for blood ammonia on Day 1 compared with Day 10.

[2] = HPN-100-005 pharmacokinetics of HPN-100 and NaPBA in pediatric UCD patients; conditions: HPN-100-005 (N = 11)
Source text: (§1) The pharmacokinetics of the short term studies can be summarized as follows. Mean exposure levels of HPN-100 metabolites PBA, PAA, and PAGN after doses of HPN-100 and NaPBA with meals (TID) in pediatric (29 days to 17 years of age) UCD patients in HPN-100-005 and HPN-100-012 studies are summarized below. The mean exposure to PBA, the parent metabolite, and mean exposure to PAGN, the terminal metabolite, show no systematic variation across age groups, while PAA exposure tended to decrease with increasing age, a finding consistent with those from population PK modeling which indicate that the rate of clearance/metabolism of PAA varies directly with body size. While systemic metabolite exposure, assessed as peak plasma concentration (Cmax) or AUC, is generally similar for HPN-100 and NaPBA, the minimum concentration (Cmin-ss) was higher—and/or percent-fluctuation less—for plasma PAGN, a finding consistent with slower gastrointestinal absorption of PBA when administered orally as HPN-100.

[3] = HPN-100-012 switch-over study, pharmacokinetics of HPN-100 and NaPBA in pediatric UCD patients; conditions: HPN-100-012 (N = 15), TID with meals, arithmetic mean
Experimental: HPN-100-012, an open-label, fixed sequence, switch-over study of the safety, PK and efficacy of HPN-100 compared to NaPBA in patients with UCDs, with a 12-month safety extension part. The switch-over part of the study and the 12-month safety extension are complete. The switch-over part was conducted at 7 U.S. centers and enrolled 15 pediatric UCD patients between 29 days and <6 year of age, all of whom completed the study. After review of all the safety data by the DSMB, 8 additional subjects were enrolled in the study after the switch-over phase was completed. The primary efficacy endpoint was the 24-hour AUC (area under the curve) for blood ammonia on Day 1 compared with Day 10.
as §1

[4] = pediatric UCD patients, TID with meals, arithmetic mean

Plasma PAA CLss/F [2, 4]: 34391 mL/min
Plasma PBA CLss/F [2, 4]: 145463 mL/min
Plasma PAA Cmin-ss ([2]; pediatric UCD patients, TID with meals, arithmetic mean (CV %)): 674 ng/mL
U-PAGN Ae0-12 ([2]; urinary PAGN excreted 0-12 h, arithmetic mean): 7098020 µg
U-PAGN Ae12-24 ([2]; urinary PAGN excreted 12-24 h, arithmetic mean): 5414406 µg
Plasma PAA % Fluctuation [3]: 1289%
Plasma PAA AUC0-24 [3]: 1458 µg·h/mL
Plasma PAA CLss/F [3]: 94249 mL/min
Plasma PAGN CLss/F [3]: 14360 mL/min
Plasma PBA CLss/F [3]: 112093 mL/min
Plasma PBA Cmin-ss [3]: 993 ng/mL
Structure (SMILES): O=C([O-])CCCc1ccccc1.[Na+] [NaPBA, sodium phenylbutyrate]
Mean blood ammonia at the 12-hour time point ([1]; HPN-100 Day 10, NaPBA Day 1, highest value for both treatments): 41.03 µmol/L
Mean blood ammonia at the 24-hour time point ([1]; NaPBA Day 1, lowest value on NaPBA): 34.66 µmol/L
U-PAGN Ae ([2]; urinary PAGN excreted, arithmetic mean): 12512426 µg
